Experimental data as given in patent US8846653B2, “Delta-tocotrienol treatment and prevention of pancreatic cancer” (University of South Florida, priority 2006, dated 2014).

What was measured:
Assay type in all cases: cell-based, human
[1] = tested on: SW1990 pancreatic cancer cells; assay: MTS assay of SW1990 cultures, single 50 μM dose; conditions: SW1990, 50 μM
In short: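 SW1990 cells were grown in DMEM with 10% FBS at 37 °C, 5% CO2. They were given one 50 μM dose of a tocotrienol, tocopherol, tocopherol succinate, geranylgeraniol or succinic acid, in an olive-oil-extract vehicle. MTS viability was read at 24, 48 or 72 h and compared with vehicle-only cultures.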

BXPC3 cells = assay: MTT assay of BXPC3 cultures, single 50 μM dose; parameters: MTT assay result, run 1 / MTT assay result, run 2 / MTT assay result, run 3 / MTT assay result, run 4 / MTT assay result, run 5 / MTT assay result, run 6 / MTT assay result, run 7 / MTT assay result, av (average) / MTT assay result, av-blank / MTT assay result, av: unit not given here; conditions: BXPC3, 50 μM; for MTT assay result, av-blank: average minus blank
In short: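 BXPC3 cells in 10% FBS medium at 37° C, 5% CO2, given a single 50 μM dose of tocotrienols, tocopherols, tocopherol succinate, geranylgeraniol, succinic acid or vehicle, alongside untreated control. Viability read by MTT at 48 or 120 hours.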

MiaPaCa-2 cells = assay: MTT assay of MiaPaCa2 cultures, single 50 μM dose; parameters: rel amt (relative value set to the control): unit not given here; conditions: MiaPaCa2, 50 μM; for MTT assay result, av-blank: average minus blank; for MTT assay result, av: average of 7 runs
In short: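 MiaPaCa-2 cells given a single 50 μM dose of test agent (tocotrienols, tocopherols, tocopherol succinate, geranylgeraniol or succinic acid) or vehicle (ethanol-extracted olive oil). Viability read by MTT at 48 or 120 hours after treatment, alongside vehicle-only control culture.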

alpha tocotrienol [T3 alpha]
rel amnt (relative value set to the control) ([1]; 24 hours): 121 | MTS assay result, run 1 ([1]; 24 hours): 0.168 | MTS assay result, run 2 ([1]; 24 hours): 0.183 | MTS assay result, run 3 ([1]; 24 hours): 0.175 | MTS assay result, run 4 ([1]; 24 hours): 0.148 | MTS assay result, run 5 ([1]; 24 hours): 0.195 | MTS assay result, run 6 ([1]; 24 hours): 0.176 | MTS assay result, run 7 ([1]; 24 hours): 0.206 | MTS assay result, run 8 ([1]; 24 hours): 0.172 | MTS assay result, run 9 ([1]; 24 hours): 0.178 | rel amnt (relative value set to the control) ([1]; 48 hours): 116 | MTS assay result, run 1 ([1]; 48 hours): 0.168 | MTS assay result, run 2 ([1]; 48 hours): 0.162 | MTS assay result, run 3 ([1]; 48 hours): 0.16 | MTS assay result, run 4 ([1]; 48 hours): 0.146 | MTS assay result, run 5 ([1]; 48 hours): 0.175 | MTS assay result, run 6 ([1]; 48 hours): 0.205 | MTS assay result, run 7 ([1]; 48 hours): 0.2 | MTS assay result, run 8 ([1]; 48 hours): 0.187 | MTS assay result, run 9 ([1]; 48 hours): 0.175 | rel amnt (relative value set to the control) ([1]; 72 hours): 61 | MTS assay result, run 1 ([1]; 72 hours): 0.279 | MTS assay result, run 2 ([1]; 72 hours): 0.282 | MTS assay result, run 3 ([1]; 72 hours): 0.29 | MTS assay result, run 4 ([1]; 72 hours): 0.238 | MTS assay result, run 5 ([1]; 72 hours): 0.302 | MTS assay result, run 6 ([1]; 72 hours): 0.279 | MTS assay result, run 7 ([1]; 72 hours): 0.25 | MTS assay result, run 8 ([1]; 72 hours): 0.254 | MTS assay result, run 9 ([1]; 72 hours): 0.273 | rel amt (relative value set to the control) (BXPC3 cells; 48 hours): 104 | MTT assay result, av-blank (BXPC3 cells; 48 hours): 0.236 | MTT assay result, av (average) (BXPC3 cells; 48 hours, average of 7 runs): 0.285 | MTT assay result, run 1 (BXPC3 cells; 48 hours): 0.279 | MTT assay result, run 2 (BXPC3 cells; 48 hours): 0.275 | MTT assay result, run 3 (BXPC3 cells; 48 hours): 0.295 | MTT assay result, run 4 (BXPC3 cells; 48 hours): 0.301 | MTT assay result, run 5 (BXPC3 cells; 48 hours): 0.3 | MTT assay result, run 6 (BXPC3 cells; 48 hours): 0.273 | MTT assay result, run 7 (BXPC3 cells; 48 hours): 0.275 | rel amt (relative value set to the control) (BXPC3 cells; 120 hours (5 days)): 97 | MTT assay result, av-blank (BXPC3 cells; 120 hours (5 days)): 0.558 | MTT assay result, av (BXPC3 cells; 120 hours (5 days), average of 7 runs): 0.613 | MTT assay result, run 1 (BXPC3 cells; 120 hours (5 days)): 0.584 | MTT assay result, run 2 (BXPC3 cells; 120 hours (5 days)): 0.637 | MTT assay result, run 3 (BXPC3 cells; 120 hours (5 days)): 0.594 | MTT assay result, run 4 (BXPC3 cells; 120 hours (5 days)): 0.63 | MTT assay result, run 5 (BXPC3 cells; 120 hours (5 days)): 0.62 | MTT assay result, run 6 (BXPC3 cells; 120 hours (5 days)): 0.61 | MTT assay result, run 7 (BXPC3 cells; 120 hours (5 days)): 0.618 | rel amt (relative value set to the control) (MiaPaCa-2 cells; 48 hours): 94 | MTT assay result, av-blank (MiaPaCa-2 cells; 48 hours): 0.292 | MTT assay result, av (MiaPaCa-2 cells; 48 hours): 0.338 | MTT assay result, run 1 (MiaPaCa-2 cells; 48 hours): 0.349 | MTT assay result, run 2 (MiaPaCa-2 cells; 48 hours): 0.341 | MTT assay result, run 3 (MiaPaCa-2 cells; 48 hours): 0.356 | MTT assay result, run 4 (MiaPaCa-2 cells; 48 hours): 0.329 | MTT assay result, run 5 (MiaPaCa-2 cells; 48 hours): 0.349 | MTT assay result, run 6 (MiaPaCa-2 cells; 48 hours): 0.316 | MTT assay result, run 7 (MiaPaCa-2 cells; 48 hours): 0.323 | rel amt (relative value set to the control) (MiaPaCa-2 cells; 120 hours (5 days)): 84 | MTT assay result, av-blank (MiaPaCa-2 cells; 120 hours (5 days)): 1.528 | MTT assay result, av (MiaPaCa-2 cells; 120 hours (5 days)): 1.580 | MTT assay result, run 1 (MiaPaCa-2 cells; 120 hours (5 days)): 1.497 | MTT assay result, run 2 (MiaPaCa-2 cells; 120 hours (5 days)): 1.573 | MTT assay result, run 3 (MiaPaCa-2 cells; 120 hours (5 days)): 1.569 | MTT assay result, run 4 (MiaPaCa-2 cells; 120 hours (5 days)): 1.55 | MTT assay result, run 5 (MiaPaCa-2 cells; 120 hours (5 days)): 1.811 | MTT assay result, run 6 (MiaPaCa-2 cells; 120 hours (5 days)): 1.589 | MTT assay result, run 7 (MiaPaCa-2 cells; 120 hours (5 days)): 1.47
